Test results: US12285434B2, “Therapeutic, preventive, or improvement agent for inflammatory disease and allergic disease” (The University of Tokyo, priority 2018, dated 2025)

Tests used:
[1] = test system: histamine-induced vascular permeability in mouse ears; assay: Modified Miles assay: histamine-induced vascular hyperpermeability (Evans blue extravasation); type: in vivo, mouse (C57BL/6); details: pretreatment 0.1 μg/ear, 15 minutes, before 400 μg histamine
Description: Fifteen (15) minutes after the intracutaneous injection, a vehicle (80% acetone) or histamine (400 μg, manufactured by Molecular Probes) was percutaneously administered to the ventral surface of the ears. To evaluate vascular permeability, Evans blue (50 mg/kg, manufactured by Sigma) was injected intravenously 5 minutes after the administration of histamine. The mice were then euthanized by cervical dislocation 30 minutes after the injection of Evans blue. The ears were dissected, dried at 55° C., and weighed. Extravasated Evans blue present in the ears was extracted in formamide (manufactured by Molecular Probes), and quantified spectrophotometrically (manufactured by PerkinElmer Japan Co., Ltd.) at a wavelength of 610 nm.

[2] = test system: HUVECs; assay: Endothelial barrier function: transendothelial electrical resistance (TER); type: cell-based, human
Description: In Examples 4 to 6, human umbilical vein endothelial cells (hereinafter, sometimes referred to as “HUVECs”, manufactured by Lonza) were cultured in EGM-2 (manufactured by Lonza K.K.). These cells (passages 4 to 9) were used for experiments after 4-hour starvation in EBM-2 (manufactured by Lonza K.K.) containing 2% FBS.
The in vitro endothelial barrier function was evaluated by measuring the transendothelial electrical resistance (hereinafter, sometimes referred to as “TER”) of the HUVECs prepared in the above item (1) over time. Specifically, the transendothelial electrical resistance was measured using an xCELLigence Real-Time Cell Analyzer DP system (manufactured by Roche). The system monitors changes in TER across an interdigitated microelectrode at the bottom of tissue culture E-plates (manufactured by Roche). The HUVECs (8,000 cells) were plated on the E-plates and incubated until confluent. Then, the following operation (a) or (b) was performed.
(a) Each reagent was added to plates on which the HUVECs were cultured, so as to give a vehicle, 1 U/mL thrombin, 1 μM forskolin, or 0.1 μM or 0.3 μM 5,6-DiHETE (FIGS. 4A and 4B).
(b) A vehicle or […] was added to plates on which the HUVECs were cultured, so as to attain 10 μM. […] Thirty (30) minutes after the addition, 10 μM histamine was added to each plate 30 minutes after the addition (FIGS. 4C and 4D).
In the above operations (a) and (b), the TER was measured every 60 seconds. For normalization, the cell index value at each time point is shown as a ratio relative to the initial value. The maximum normalized cell index after stimulation was quantified and represented as maximal response. Note that it is known that the disruption of the endothelial barrier function lowers the TER, but that the enhancement of the endothelial barrier function increases the TER.

[3] = test system: DSS-induced colitis model mice; assay: DSS-induced colitis: histologic score and colon edema (wet/dry weight ratio); type: in vivo, mouse (C57BL/6); details: Day 14; 50 μg/kg/day intraperitoneally on Days 9, 11 and 13
Excerpt: C57BL/6 strain mice (male, 8 to 12 weeks old) were fed with water containing 2% dextran sodium sulfate (manufactured by MP Bio, hereinafter sometimes referred to as “DSS”) for 4 days to prepare colitis model mice (hereinafter, sometimes referred to as “colitis group” in Examples 7 to 10). The mice taken with DSS for 4 days were fed with normal water from Day 5. The DSS intake start date was defined as Day 1 of the test, and the day before the DSS intake start date was defined as Day 0 of the test. In addition, a group in which C57BL/6 strain mice (male, 8 to 12 weeks old) were fed with normal water was defined as a “healthy group” (the same applies to Examples 8 to 10).
To investigate the role of 5,6-DiHETE in the healing phase, the colitis model mice prepared in Example 7(1) were intraperitoneally injected with 5,6-DiHETE (manufactured by Cayman Chemical) (50 μg/kg/day) or HC-067047 (manufactured by Cayman Chemical) (1 mg/kg/day) on Days 9, 11 and 13 of the test (hereinafter, sometimes referred to as “5,6-DiHETE-administered group” and “HC-067047-administered group,” respectively, in Examples 9 and 10). HC-067047 is known to inhibit an increase of calcium ion concentration in endothelial cells.
Distal colon sections on Day 14 of the test in the healthy group, colitis group, 5,6-DiHETE-administered group and HC-067047-administered group were fixed in 4% paraformaldehyde for 24 hours, embedded in paraffin and cut into 2 μm-thick sections. Hematoxylin staining and eosin staining of these sections were performed according to a conventional method. The histologic score was then decided according to the description of Kruschewski M. et al., Digestive Diseases and Sciences, 46: 2336-2343 (2001) to evaluate the colitis severity.
The wet/dry weight ratio was used as an index of colon edema (Rachmilewitz D. et al., Gastroenterology, 97: 326-337(1989)). Specifically, the distal colon was collected, and the wet weight was measured. The distal colon was then dried at 60 C for 24 hours, and, thereafter, the dry weight was measured.

[4] = test system: acute lung injury model mice; assay: Hydrochloric acid-induced acute lung injury (pneumonia, pulmonary edema); type: in vivo, mouse; details: 50 μg/kg intraperitoneally 5 minutes before and 3 hours after HCl
Description: Fifty (50) μL of 0.1 N hydrochloric acid was nasally administered to 57BL/6 strain mice (male, 8 to 12 weeks old) to prepare acute lung injury model mice (hereinafter, sometimes referred to as “pneumonia group”). On the other hand, 50 μg/kg 5,6-DiHETE (manufactured by Cayman Chemical) was intraperitoneally administered 5 minutes before and 3 hours after the nasal administration of hydrochloric acid (hereinafter, sometimes referred to as “5,6-DiHETE-administered group”).
The lungs of the pneumonia group and the 5,6-DiHETE-administered group were collected 6 hours after the nasal administration of hydrochloric acid, fixed in 4% paraformaldehyde for 24 hours, embedded in paraffin, and cut into 2 μm-thick sections. Hematoxylin staining and eosin staining of these sections were performed according to a conventional method.
The wet/dry weight ratio was used as an index of pulmonary edema (Rachmilewitz D. et al., Gastroenterology, 97: 326-337(1989)). Specifically, 6 hours after the nasal administration of hydrochloric acid, the lungs were collected and the wet weights were measured. The lungs were then dried at 60° C. for 24 hours, and, thereafter, the dry weight was measured. In addition, the ventilatory capacity of the lungs was evaluated as an index of pneumonia using arterial blood oxygen saturations.

[5] = test system: anaphylaxis model mice; assay: Histamine-induced anaphylaxis: blood pressure and body temperature; type: in vivo, mouse (C57BL/6); details: 50 μg/kg intravenously 15 minutes before histamine 50 mg/kg
Description: Histamine (50 mg/kg) lysed in a physiological saline solution was intravenously administered to C57BL/6 strain mice (male, 8 to 12 weeks old) to prepare anaphylaxis model mice (hereinafter, sometimes referred to as “anaphylaxis group”). […] L-NAME is an NO synthesis inhibitor. As indices of anaphylactic symptoms, a body temperature decrease and a blood pressure decrease were observed.

CC/C=C\C/C=C\C/C=C\C/C=C\C[C@@H](O)[C@@H](O)CCCC(=O)O (racemic) [5,6-DiHETE, (±) 5,6-dihydroxy-8Z,11Z,14Z,17Z-eicosatetraenoic acid]
dye extravasation (Evans blue) in ear [1]: 0.06 ± 0.02 µg/mg
change of TER ([2]; 0.1 μM and 0.3 μM, alone): did not change the TER
TER, minimum (normalized cell index) ([2]; pretreatment 0.3 μM, 15 minutes, before histamine 10 μM): 0.915±0.012 fold
colon edema, wet/dry weight ratio [3]: 5.2±0.2
histologic score of colitis [3]: 3.3±0.5
decrease in arterial blood oxygen saturation [4]: suppressed
epithelial damage and neutrophil tissue infiltration (HE-stained lung) ([4]; 6 hours): suppressed
moisture content of the lung tissue (wet/dry weight ratio) ([4]; 6 hours): significantly reduced except one case
reddishness of lung tissue (appearance) ([4]; 6 hours): improved
blood pressure [5]: 93.3±4.9 mmHg
body temperature decrease [5]: −0.2±0.1 °C
